Key:
Kasumi-1 cells = experiment: Tumor cell proliferation IC50 (CCK-8), Kasumi-1; settings: Homo sapiens, Kasumi 1, 72 h, read-out: IC50 for inhibiting the proliferation of tumor cells, Kasumi-1
Experimental: (§1) The tumor cells used herein were cultured in a cell culture medium listed in table A at 37° C. in an incubator with 5% CO2.
(§2) After the cells were treated with the compounds of the present disclosure for a period of time, the cell viability detection reagent was added to the culture medium for cell viability assessment according to the instructions provided with the CCK-8 kit. […] The growth inhibition of the compounds of the present disclosure on cells was plotted by Prism Graphpad software, and the IC50 values of the compounds of the present disclosure were calculated therefrom.

TMD8 cells = experiment: Tumor cell proliferation IC50 (CCK-8), TMD8; settings: Homo sapiens, TMD8, 72 h, read-out: IC50 for inhibiting the proliferation of tumor cells, TMD8
Experimental: as §1, §2

MM.1S cells = experiment: Tumor cell proliferation IC50 (CCK-8), MM.1S; settings: Homo sapiens, MM1.S, 72 h, read-out: IC50 for inhibiting the proliferation of tumor cells, MM.1S;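 further: viability of cultured cells read by CCK-8 reagent after compound exposure, growth inhibition curves fitted to derive IC50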
Experimental: as §1, §2

IKZF3 protein = IKZF3 protein (Homo sapiens (Human), UniProt Q96SW2+Q9UKT9); experiment: Western-blot assay of substrate protein degradation in hPBMC, IKZF3; assay type: cell-based; settings: hPBMC, 24 h, 50 nM
Sequence of IKZF3 protein (Q9UKT9 whole entry): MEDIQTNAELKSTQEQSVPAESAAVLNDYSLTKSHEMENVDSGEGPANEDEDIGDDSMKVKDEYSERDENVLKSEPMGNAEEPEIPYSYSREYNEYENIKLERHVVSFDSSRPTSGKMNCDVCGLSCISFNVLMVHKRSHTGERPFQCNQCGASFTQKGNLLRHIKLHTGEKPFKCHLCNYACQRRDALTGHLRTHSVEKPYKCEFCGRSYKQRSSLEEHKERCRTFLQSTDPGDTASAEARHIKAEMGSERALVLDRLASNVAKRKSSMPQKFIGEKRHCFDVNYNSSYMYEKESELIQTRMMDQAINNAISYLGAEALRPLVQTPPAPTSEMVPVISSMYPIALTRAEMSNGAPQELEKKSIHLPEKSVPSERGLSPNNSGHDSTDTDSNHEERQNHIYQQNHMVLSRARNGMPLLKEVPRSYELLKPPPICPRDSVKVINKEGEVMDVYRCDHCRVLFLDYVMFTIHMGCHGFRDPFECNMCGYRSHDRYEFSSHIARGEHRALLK
Sequence of IKZF3 protein (Q96SW2 whole entry): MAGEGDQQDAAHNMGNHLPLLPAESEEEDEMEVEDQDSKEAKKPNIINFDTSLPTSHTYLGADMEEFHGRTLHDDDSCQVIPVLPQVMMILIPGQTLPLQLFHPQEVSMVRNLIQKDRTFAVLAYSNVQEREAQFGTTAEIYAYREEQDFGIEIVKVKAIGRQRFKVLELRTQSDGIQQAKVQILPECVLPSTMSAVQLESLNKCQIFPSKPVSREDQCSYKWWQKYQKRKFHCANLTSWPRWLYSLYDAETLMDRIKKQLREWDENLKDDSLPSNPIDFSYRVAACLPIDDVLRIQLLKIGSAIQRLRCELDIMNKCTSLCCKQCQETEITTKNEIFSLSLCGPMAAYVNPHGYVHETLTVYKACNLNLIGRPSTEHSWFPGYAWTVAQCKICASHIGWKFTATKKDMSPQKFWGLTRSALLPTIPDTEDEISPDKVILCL
Sequence of IKZF3 protein (Q16531 whole entry partner): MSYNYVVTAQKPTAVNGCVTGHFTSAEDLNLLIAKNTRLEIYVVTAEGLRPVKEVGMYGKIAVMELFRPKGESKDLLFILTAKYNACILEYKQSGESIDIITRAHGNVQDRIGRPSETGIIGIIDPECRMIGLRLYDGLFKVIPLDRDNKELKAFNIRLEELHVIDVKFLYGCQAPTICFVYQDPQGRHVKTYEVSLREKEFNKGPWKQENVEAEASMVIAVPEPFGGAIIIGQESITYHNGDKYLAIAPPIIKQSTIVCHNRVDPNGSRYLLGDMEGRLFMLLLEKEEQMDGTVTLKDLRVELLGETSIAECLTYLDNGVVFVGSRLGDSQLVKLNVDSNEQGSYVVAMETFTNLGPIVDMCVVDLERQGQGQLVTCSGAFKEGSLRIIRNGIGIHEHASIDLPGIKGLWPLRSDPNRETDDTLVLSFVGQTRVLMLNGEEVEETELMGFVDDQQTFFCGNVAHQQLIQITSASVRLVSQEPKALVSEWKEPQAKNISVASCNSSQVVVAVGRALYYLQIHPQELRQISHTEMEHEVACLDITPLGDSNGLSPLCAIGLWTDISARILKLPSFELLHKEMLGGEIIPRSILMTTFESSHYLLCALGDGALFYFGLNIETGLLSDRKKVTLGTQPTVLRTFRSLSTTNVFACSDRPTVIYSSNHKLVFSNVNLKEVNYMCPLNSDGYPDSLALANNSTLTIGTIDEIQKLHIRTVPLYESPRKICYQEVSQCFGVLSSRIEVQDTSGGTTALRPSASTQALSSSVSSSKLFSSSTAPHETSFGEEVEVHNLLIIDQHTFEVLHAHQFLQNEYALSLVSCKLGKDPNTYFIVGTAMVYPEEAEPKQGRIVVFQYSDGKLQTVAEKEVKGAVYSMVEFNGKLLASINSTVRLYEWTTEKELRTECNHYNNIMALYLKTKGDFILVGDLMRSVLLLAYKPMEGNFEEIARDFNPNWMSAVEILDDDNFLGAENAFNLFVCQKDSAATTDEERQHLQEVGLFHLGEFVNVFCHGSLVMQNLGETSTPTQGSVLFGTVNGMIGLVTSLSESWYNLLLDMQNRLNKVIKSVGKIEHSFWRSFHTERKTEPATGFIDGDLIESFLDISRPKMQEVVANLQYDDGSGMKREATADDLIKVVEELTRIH

Ramos cells = experiment: Tumor cell proliferation IC50 (CCK-8), Ramos; settings: Homo sapiens, 72 h, read-out: IC50 for inhibiting the proliferation of tumor cells, Ramos
Experimental: as §1, §2

SU-DHL-4 cells = experiment: Tumor cell proliferation IC50 (CCK-8), SU-DHL-4; settings: Homo sapiens, SU-DHL-4, 72 h, read-out: IC50 for inhibiting the proliferation of tumor cells, SU-DHL-4
Experimental: (§3) Prior to experimentation, all cells used were correctly identified by STR profiling, and tested negative for mycoplasma through routine screenings.
as §2

MM.1R cells = experiment: Tumor cell proliferation IC50 (CCK-8), MM.1R; settings: Homo sapiens, 72 h, read-out: IC50 for inhibiting the proliferation of tumor cells, MM.1R
Experimental: as §1, §2

CCRF-CEM cells = experiment: Tumor cell proliferation IC50 (CCK-8), CCRF-CEM; settings: Homo sapiens, 96 h, read-out: IC50 for inhibiting the proliferation of tumor cells, CCRF-CEM;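 further: cell viability measured with CCK-8 reagent after compound treatment, IC50 taken from plotted growth inhibition curves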
Experimental: as §1, §2

GSPT1 protein = GSPT1 protein (Homo sapiens (Human), UniProt P15170+Q96SW2); experiment: Western-blot assay of substrate protein degradation in hPBMC, GSPT1; assay type: cell-based; settings: hPBMC, 24 h, 50 nM
Sequence of GSPT1 protein (P15170 whole entry): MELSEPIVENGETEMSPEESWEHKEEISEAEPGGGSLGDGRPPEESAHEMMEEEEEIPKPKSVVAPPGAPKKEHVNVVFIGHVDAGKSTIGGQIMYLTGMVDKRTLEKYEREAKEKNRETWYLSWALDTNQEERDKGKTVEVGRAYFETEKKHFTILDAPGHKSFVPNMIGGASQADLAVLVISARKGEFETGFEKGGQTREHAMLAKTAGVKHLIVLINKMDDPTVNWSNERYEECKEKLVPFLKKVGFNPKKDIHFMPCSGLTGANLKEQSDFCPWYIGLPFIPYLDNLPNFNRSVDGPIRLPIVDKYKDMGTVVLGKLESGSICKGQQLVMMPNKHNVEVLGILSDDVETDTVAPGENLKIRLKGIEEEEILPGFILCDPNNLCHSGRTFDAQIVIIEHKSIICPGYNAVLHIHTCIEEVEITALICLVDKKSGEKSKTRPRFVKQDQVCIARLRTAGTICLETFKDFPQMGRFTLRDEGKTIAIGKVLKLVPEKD
Sequence of GSPT1 protein (Q96SW2 whole entry): as the sequence (Q96SW2 whole entry) above
Sequence of GSPT1 protein (Q16531 whole entry partner): as the sequence (Q16531 whole entry partner) above

Mino cells = experiment: Tumor cell proliferation IC50 (CCK-8), Mino; settings: Homo sapiens, 72 h, read-out: IC50 for inhibiting the proliferation of tumor cells, Mino;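 further: cell viability assessed with CCK-8 reagent after compound exposure, IC50 derived from plotted growth inhibition curves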
Experimental: as §1, §2

MV-4-11 cells = experiment: Tumor cell proliferation IC50 (CCK-8), MV-4-11; settings: Homo sapiens, MV4-11, 96 h, read-out: IC50 for inhibiting the proliferation of tumor cells, MV-4-11
Experimental: as §1, §2

SU-DHL-6 cells = experiment: Tumor cell proliferation IC50 (CCK-8), SU-DHL-6; settings: Homo sapiens, SU-DHL-6, 72 h, read-out: IC50 for inhibiting the proliferation of tumor cells, SU-DHL-6
Experimental: as §3, §2

IKZF1 protein = IKZF1 protein (Homo sapiens (Human), UniProt Q13422+Q96SW2); experiment: Western-blot assay of substrate protein degradation in hPBMC, IKZF1; assay type: cell-based; settings: hPBMC, 24 h, 50 nM
Sequence of IKZF1 protein (Q13422 whole entry): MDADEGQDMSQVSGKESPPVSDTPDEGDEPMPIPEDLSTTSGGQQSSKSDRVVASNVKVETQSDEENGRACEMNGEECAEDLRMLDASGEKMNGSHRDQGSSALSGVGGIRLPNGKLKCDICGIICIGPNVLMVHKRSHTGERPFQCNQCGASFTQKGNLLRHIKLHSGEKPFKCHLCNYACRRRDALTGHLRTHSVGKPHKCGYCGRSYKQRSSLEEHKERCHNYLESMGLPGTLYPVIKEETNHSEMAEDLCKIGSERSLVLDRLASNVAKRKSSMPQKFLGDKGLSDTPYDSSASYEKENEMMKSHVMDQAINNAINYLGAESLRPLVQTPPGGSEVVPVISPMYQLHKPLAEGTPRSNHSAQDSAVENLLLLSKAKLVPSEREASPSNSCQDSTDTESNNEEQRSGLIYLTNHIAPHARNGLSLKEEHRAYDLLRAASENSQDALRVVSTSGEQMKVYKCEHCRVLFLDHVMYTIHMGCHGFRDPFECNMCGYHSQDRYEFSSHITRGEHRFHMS
Sequence of IKZF1 protein (Q96SW2 whole entry): as the sequence (Q96SW2 whole entry) above
Sequence of IKZF1 protein (Q16531 whole entry partner): as the sequence (Q16531 whole entry partner) above

SW620 cells = experiment: Tumor cell proliferation IC50 (CCK-8), SW620; settings: Homo sapiens, SW-620, 96 h, read-out: IC50 for inhibiting the proliferation of tumor cells, SW620
Experimental: as §1, §2

MDA-MB-231 cells = experiment: Tumor cell proliferation IC50 (CCK-8), MDA-MB-231; settings: Homo sapiens, MDA-MB-231, 96 h, read-out: IC50 for inhibiting the proliferation of tumor cells, MDA-MB-231
Experimental: as §3, §2

Daudi cells = experiment: Tumor cell proliferation IC50 (CCK-8), Daudi; settings: Homo sapiens, read-out: IC50 for inhibiting the proliferation of tumor cells, Daudi;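 further: cell viability read with CCK-8 reagent after compound exposure of Daudi cells, IC50 derived from plotted growth inhibition curves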
Experimental: as §1, §2

**Q.** Nc1cccc2c1C(=O)N(C1CCC(=O)NC1=O)C2=O (stereo not shown) [pomalidomide, reference compound] was tested. Which IC50 (Kasumi-1 cells) did it give?
**A.** > 10 µM

**Q.** What about the IC50 (TMD8 cells) of the same compound?
**A.** 0.5 to 1 µM

**Q.** And the IC50 (MM.1S cells)?
**A.** 0.1 to 0.5 µM

**Q.** What about the “degradation of IKZF3 protein (Western blot, FIG. 1)” value (IKZF3 protein) of the same compound?
**A.** cannot degrade

**Q.** What about the IC50 (Ramos cells) of the same compound?
**A.** 1 to 5 µM

**Q.** What about the IC50 (SU-DHL-4 cells) of the same compound?
**A.** > 10 µM

**Q.** And the IC50 (MM.1R cells)?
**A.** > 10 µM

**Q.** What about the IC50 (CCRF-CEM cells) of the same compound?
**A.** > 10 µM

**Q.** What about the “degradation of GSPT1 protein (Western blot, FIG. 1)” value (GSPT1 protein) of the same compound?
**A.** cannot degrade

**Q.** And the IC50 (Mino cells)?
**A.** 1 to 5 µM

**Q.** What about the IC50 (MV-4-11 cells) of the same compound?
**A.** > 10 µM

**Q.** What about the IC50 (SU-DHL-6 cells) of the same compound?
**A.** > 10 µM

**Q.** And the “degradation of IKZF1 protein (Western blot, FIG. 1)” value (IKZF1 protein)?
**A.** cannot degrade

**Q.** And the IC50 (SW620 cells)?
**A.** > 10 µM

**Q.** What about the IC50 (MDA-MB-231 cells) of the same compound?
**A.** > 10 µM

**Q.** And the IC50 (Daudi cells)?
**A.** 5 to 10 µM
